Measurements reported in patent US12410163B2, “Compounds as GLP-IR agonists” (Terns Pharmaceuticals, Inc., priority 2022, dated 2025).

Assay: Passive permeability and efflux ratio (Caco-2)
Format: in vitro ADME
Conditions: human; for efflux ratio at 120 min, 5 μM: pH 7.4, Caco-2, efflux ratio = Papp (B-to-A)/Papp (A-to-B), read-out: ER; for Papp A→B at 120 min, 5 μM: Caco-2, 5 μM, pH 7.4, 120 minutes
Experimental: Caco-2 cells (clone C2BBe1) are obtained, e.g., from American Type Culture Collection (Manassas, VA). Cell monolayers are grown to confluence on collagen-coated, microporous membranes in 12-well assay plates. The permeability assay buffer is Hanks' balanced salt solution containing 10 mM HEPES and 15 mM glucose at a pH of 7.4. The buffer in the receiver chamber also contains 1% bovine serum albumin. The dosing solution concentration is 5 μM of test article in the assay buffer. Cell monolayers are dosed on the apical side (A-to-B) or basolateral side (B-to-A) and incubated at 37° C. with 5% CO2 in a humidified incubator. Samples are taken from the donor and receiver chambers at 120 minutes. Each determination is performed in duplicate. The flux of lucifer yellow is also measured post-experimentally for each monolayer to ensure no damage is inflicted to the cell monolayers during the flux period. All samples are assayed by LC-MS/MS using electrospray ionization. The apparent permeability (Papp) and percent recovery were calculated as follows: Papp=(dCr/dt)×Vr/(A×CA) (1) Percent Recovery=100×((Vr×Cr^final)+(Vd×Cd^final))/(Vd×CN) (2), where, dCr/dt is the slope of the cumulative receiver concentration versus time in μM s^−1; Vr is the volume of the receiver compartment in cm^3; Vd is the volume of the donor compartment in cm^3; A is the area of the insert (1.13 cm^2 for 12-well); CA is the average of the nominal dosing concentration and the measured 120-minute donor concentration in μM; CN is the nominal concentration of the dosing solution in μM; Cr^final is the cumulative receiver concentration in μM at the end of the incubation period; Cd^final is the concentration of the donor in μM at the end of the incubation period. Efflux ratio (ER) is defined as Papp (B-to-A)/Papp (A-to-B). Rat Pharmacokinetics
Caco-2 cells (clone C2BBe1) were obtained from American Type Culture Collection (Manassas, VA). Cell monolayers were grown to confluence on collagen-coated, microporous membranes in 12-well assay plates. Details of the plates and their certification are shown below. The permeability assay buffer was Hanks' balanced salt solution containing 10 mM HEPES and 15 mM glucose at a pH of 7.4. The buffer in the receiver chamber also contained 1% bovine serum albumin. The dosing solution concentration was 5 μM of test article in the assay buffer. Cell monolayers were dosed on the apical side (A-to-B) or basolateral side (B-to-A) and incubated at 37° C. with 5% CO2 in a humidified incubator. Samples were taken from the donor and receiver chambers at 120 minutes. Each determination was performed in duplicate. The flux of lucifer yellow was also measured post-experimentally for each monolayer to ensure no damage was inflicted to the cell monolayers during the flux period. All samples were assayed by LC-MS/MS using electrospray ionization. The apparent permeability (Papp) and percent recovery were calculated as follows: Papp=(dCr/dt)×Vr/(A×CA) (1) Percent Recovery=100×((Vr×Cr^final)+(Vd×Cd^final))/(Vd×CN) (2), where, dCr/dt is the slope of the cumulative receiver concentration versus time in μM s^−1; Vr is the volume of the receiver compartment in cm^3; Vd is the volume of the donor compartment in cm^3; A is the area of the insert (1.13 cm^2 for 12-well); CA is the average of the nominal dosing concentration and the measured 120-minute donor concentration in μM; CN is the nominal concentration of the dosing solution in μM; Cr^final is the cumulative receiver concentration in μM at the end of the incubation period; Cd^final is the concentration of the donor in μM at the end of the incubation period. Efflux ratio (ER) is defined as Papp (B-to-A)/Papp (A-to-B).

Structure (SMILES) | efflux ratio at 120 min, 5 μM | Papp A→B at 120 min, 5 μM
N#Cc1ccc(COc2cccc(N3CCN(Cc4nc5ccc(C(=O)O)cc5n4Cc4cncs4)[C@@H]4C[C@@H]43)n2)c(F)c1 (single isomer, unassigned) [Compound 1, 2-((5-(6-((4-cyano-2-fluorobenzyl)oxy)pyridin-2-yl)-2,5-diazabicyclo[4.1.0]heptan-2-yl)methyl)-1-(thiazol-5-ylmethyl)-1H-benzo[d]imidazole-6-carboxylic Acid] | 2.51 | 15 ×10⁻⁶ cm/s
CC1(c2ccc(C#N)cc2F)Oc2cccc(C3CCN(Cc4nc5ccc(C(=O)O)cc5n4Cc4cncs4)CC3)c2O1 (centres unmarked) [Compound 18] | 1.31 | 16.8 ×10⁻⁶ cm/s
N#Cc1ccc(COc2cccc([C@@H]3CCN(Cc4nc5ccc(C(=O)O)cc5n4Cc4cncs4)[C@@H]4C[C@@H]43)n2)c(F)c1 (single isomer, unassigned) [Compound 5, 2-((5-(6-((4-Cyano-2-fluorobenzyl)oxy)pyridin-2-yl)-2-azabicyclo[4.1.0]heptan-2-yl)methyl)-1-(thiazol-5-ylmethyl)-1H-benzo[d]imidazole-6-carboxylic Acid] | 1.71 | 27.9 ×10⁻⁶ cm/s
CC1(c2ccc(C#N)cc2F)Oc2cccc(N3CCN(Cc4nc5ccc(C(=O)O)cc5n4CC4(C#N)CC4)C4CC43)c2O1 (centres unmarked) [Compound 40, 2-((5-(2-(4-Cyano-2-fluorophenyl)-2-methylbenzo[d][1,3]dioxol-4-yl)-2,5-diazabicyclo[4.1.0]heptan-2-yl)methyl)-1-((1-cyanocyclopropyl)methyl)-1H-benzo[d]imidazole-6-carboxylic Acid] | 2.27 | 17.5 ×10⁻⁶ cm/s
